Assay results as given in patent US9072791B2, “Photostabilized pharmaceutical compositions” (DENKI KAGAKU KOGYO KABUSHIKI KAISHA, priority 2008, dated 2015).
“And” between values parts separate entries of the source, which are not always exact repeats. Equal entries are not always repeated. Where two headings read alike, the source gives them in different places.

What was measured:
[1] = Photostability test in glass vials not shielded from light: gelation, molecular weight, percent conjugation of MTX (Example 4(2)); assay type: physicochemical
Method: Various photostabilizers (methyl p-hydroxybenzoate (methyl paraben), salicylic acid Na, thiosulfuric acid Na, thioglycolic acid Na, N-acetyltryptophan, and tryptophan) were each dissolved in a preparation buffer (0.9% NaCl containing 2 mM phosphate buffer, pH 7.4) to give a concentration of 1 or 10 mg/ml and thereafter filtered aseptically by passage through a 0.2-μm filter (Millex GV). A powder of the HA-MTX conjugate prepared in accordance with Production 1 was metered aseptically and dissolved in the filtered, photostabilizer-containing preparation buffer to give a concentration of 10 mg/mL; the thus prepared solutions were used as test samples. To prepare a control solution, the HA-MTX conjugate was dissolved in a photostabilizer-free preparation buffer at a concentration of 10 mg/mL.
The thus prepared solutions were put into glass vials not shielded from light and then irradiated with light.
The irradiation was so performed as to give an illuminance of 4000 Lux at 25° C. from a fluorescent lamp for use in a photostability test (TOSHIBA FL20S•D-EDL-D65) by means of a photostability tester (ETAC LABONIC LA110). After the lapse of specified periods (0 h, 25 h, 50 h, 100 h, 150 h, and 300 h) of irradiation, samples were taken and not only checked for gelation but also measured for the molecular weight of the HA-MTX conjugate and the percent conjugation of MTX (in the HA-MTX conjugate).
To evaluate the degree of gelation, the surface of each sample solution was pierced with a spatula and visually checked for the formation of an interface as the result of gelation. […] The apparatus used in gel filtration chromatography was equipped with OHpackSB-806HQ (Shodex) as a column, RI-71 (Shodex) as an […], and 875-UV (JASCO, detection wavelength: 304 nm) as a UV detector and analysis was conducted under the following conditions. Eluent: 50 mM sodium phosphate aqueous solution (pH 6.0); elution rate: 0.6 mL/min; column temperature: 40° C. By the above-described gel filtration chromatography, the elution times of the conjugate of interest were determined and the molecular weight of the same conjugate was determined from the relationship between the elution times and molecular weights of standard substances. As the standard substances, hyaluronic acid samples were prepared in varying molecular weights and their accurate values were calculated by the limiting viscosity method before it was used.

[2] = Photostability test with additional light-shielding film LUMICOOL 1905 (Example 6); assay type: physicochemical; settings: for Molecular weight (×10^4), irradiation time 0 h / Molecular weight (×10^4), irradiation time 150 h / Molecular weight (×10^4), irradiation time 300 h / Percent Conjugation (%), irradiation time 0 h / Percent Conjugation (%), irradiation time 150 h / Percent Conjugation (%), irradiation time 300 h: vial wrapped with LUMICOOL 1905;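 as to all read-outs here: molecular weight and drug conjugation percentage of the test conjugate, both determined by the method given for the first production procedure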
[3] = additive 1 mg/ml, 4000 Lux, 25° C., not shielded from light
[4] = additive 10 mg/ml, 4000 Lux, 25° C., not shielded from light
[5] = added at 1 mg/mL, not shielded from light

| Molecular weight (×10^4), irradiation time 0 h [1, 3] | Molecular weight (×10^4), irradiation time 25 h [1, 3] | Molecular weight (×10^4), irradiation time 50 h [1, 3] | Molecular weight (×10^4), irradiation time 100 h [1, 3] | Molecular weight (×10^4), irradiation time 150 h [1, 3] | Molecular weight (×10^4), irradiation time 300 h [1, 3] | Percent Conjugation (%) of MTX, irradiation time 0 h [1, 3] | Percent Conjugation (%) of MTX, irradiation time 25 h [1, 3] | Percent Conjugation (%) of MTX, irradiation time 50 h [1, 3] | Percent Conjugation (%) of MTX, irradiation time 100 h [1, 3] | Percent Conjugation (%) of MTX, irradiation time 150 h [1, 3] | Percent Conjugation (%) of MTX, irradiation time 300 h [1, 3] | Structure (SMILES) | Molecular weight (×10^4), irradiation time 0 h ([2]; additive 1 mg/mL) | Molecular weight (×10^4), irradiation time 150 h ([2]; additive 1 mg/mL) | Molecular weight (×10^4), irradiation time 300 h ([2]; additive 1 mg/mL) | Percent Conjugation (%), irradiation time 0 h ([2]; additive 1 mg/mL) | Percent Conjugation (%), irradiation time 150 h ([2]; additive 1 mg/mL) | Percent Conjugation (%), irradiation time 300 h ([2]; additive 1 mg/mL) | Molecular weight (×10^4), irradiation time 0 h ([2]; additive 10 mg/mL) | Molecular weight (×10^4), irradiation time 150 h ([2]; additive 10 mg/mL) | other results |
| --- | --- | --- | --- | --- | --- | --- | --- | --- | --- | --- | --- | --- | --- | --- | --- | --- | --- | --- | --- | --- | --- |
|  |  |  |  |  |  |  |  |  |  |  |  | O=C([O-])c1ccccc1O.[Na+] [Na salicylate, sodium salicylate] | 186 ×10^4 | 184 ×10^4 | 163 ×10^4 | 2.2% | 2.1% | 2.2% | 185 ×10^4 | 190 ×10^4 | Molecular weight (×10^4), irradiation time 0 h [1]: 185 ×10^4 and 186 ×10^4; Molecular weight (×10^4), irradiation time 25 h [1]: 176 ×10^4 and 172 ×10^4; Percent Conjugation (%) of MTX, irradiation time 0 h [1]: 2.2%; Percent Conjugation (%) of MTX, irradiation time 25 h [1]: 2.2%; Percent Conjugation (%) of MTX, irradiation time 50 h [1]: 2.1%; Percent Conjugation (%) of MTX, irradiation time 100 h [1]: 2.1% and 1.9%; Percent Conjugation (%) of MTX, irradiation time 150 h [1]: 2.2% and 1.8%; Percent Conjugation (%) of MTX, irradiation time 300 h [1]: 2.2% and 2.0%; suppressing drops in the molecular weight and percent conjugation [1]: considerably effective in suppressing drops in the molecular weight and percent conjugation even when the time of irradiation exceeded 100 hours; Molecular weight (×10^4), irradiation time 300 h ([2]; additive 10 mg/mL): 179 ×10^4; Percent Conjugation (%), irradiation time 0 h ([2]; additive 10 mg/mL): 2.2%; Percent Conjugation (%), irradiation time 150 h ([2]; additive 10 mg/mL): 2.2%; Percent Conjugation (%), irradiation time 300 h ([2]; additive 10 mg/mL): 2.1%; stabilizing effects (suppressing effects on the drop in molecular weight and the drop in percent conjugation of MTX) ([2]; with light-shielding film LUMICOOL 1905): comparable to those obtained in the case where complete shielding of light was ensured by aluminum foil |
| 178 ×10^4 | 164 ×10^4 | 166 ×10^4 | 138 ×10^4 | 128 ×10^4 | 78 ×10^4 | 2.2% | 2.2% | 2.3% | 2.2% | 2.1% | 2.1% | CC(=O)N[C@@H](Cc1c[nH]c2ccccc12)C(=O)O [N-acetyltryptophan] | 178 ×10^4 | 172 ×10^4 | 136 ×10^4 | 2.2% | 2.3% | 2.2% | 190 ×10^4 | 186 ×10^4 | suppressing drops in the molecular weight and percent conjugation [1, 5]: could suppress drops in the molecular weight and percent conjugation for irradiation periods that did not exceed about 100 hours; Molecular weight (×10^4), irradiation time 0 h [1, 4]: 190 ×10^4; Molecular weight (×10^4), irradiation time 25 h [1, 4]: 180 ×10^4; Molecular weight (×10^4), irradiation time 50 h [1, 4]: 175 ×10^4; Molecular weight (×10^4), irradiation time 100 h [1, 4]: 146 ×10^4; Molecular weight (×10^4), irradiation time 150 h [1, 4]: 135 ×10^4; Molecular weight (×10^4), irradiation time 300 h [1, 4]: 97 ×10^4; Percent Conjugation (%) of MTX, irradiation time 0 h [1, 4]: 2.2%; Percent Conjugation (%) of MTX, irradiation time 25 h [1, 4]: 2.2%; Percent Conjugation (%) of MTX, irradiation time 50 h [1, 4]: 2.2%; Percent Conjugation (%) of MTX, irradiation time 100 h [1, 4]: 1.9%; Percent Conjugation (%) of MTX, irradiation time 150 h [1, 4]: 2.1%; Percent Conjugation (%) of MTX, irradiation time 300 h [1, 4]: 2.0%; Molecular weight (×10^4), irradiation time 300 h ([2]; additive 10 mg/mL): 187 ×10^4; Percent Conjugation (%), irradiation time 0 h ([2]; additive 10 mg/mL): 2.2%; Percent Conjugation (%), irradiation time 150 h ([2]; additive 10 mg/mL): 2.2%; Percent Conjugation (%), irradiation time 300 h ([2]; additive 10 mg/mL): 2.2% |
| 187 ×10^4 | 155 ×10^4 | 127 ×10^4 | 107 ×10^4 | 126 ×10^4 | 65 ×10^4 | 2.2% | 2.0% | 2.1% | 2.0% | 2.1% | 1.9% | COC(=O)c1ccc(O)cc1 [Methyl paraben, methyl p-hydroxybenzoate] | 187 ×10^4 | 184 ×10^4 | 179 ×10^4 | 2.2% | 2.2% | 2.2% |  |  | suppressing drops in the molecular weight and percent conjugation [1, 5]: could suppress drops in the molecular weight and percent conjugation for irradiation periods that did not exceed about 100 hours; stabilizing effects (suppressing effects on the drop in molecular weight and the drop in percent conjugation of MTX) [2]: comparable to those obtained in the case where complete shielding of light was ensured by aluminum foil |

| Structure (SMILES) | Molecular weight (×10^4), irradiation time 0 h [1, 3] | Molecular weight (×10^4), irradiation time 25 h [1, 3] | Molecular weight (×10^4), irradiation time 50 h [1, 3] | Molecular weight (×10^4), irradiation time 100 h [1, 3] | Molecular weight (×10^4), irradiation time 150 h [1, 3] | Molecular weight (×10^4), irradiation time 300 h [1, 3] | Percent Conjugation (%) of MTX, irradiation time 0 h [1, 3] | Percent Conjugation (%) of MTX, irradiation time 25 h [1, 3] | Percent Conjugation (%) of MTX, irradiation time 50 h [1, 3] | Percent Conjugation (%) of MTX, irradiation time 100 h [1, 3] | Percent Conjugation (%) of MTX, irradiation time 150 h [1, 3] | Percent Conjugation (%) of MTX, irradiation time 300 h [1, 3] | Molecular weight (×10^4), irradiation time 0 h ([2]; additive 1 mg/mL) | Molecular weight (×10^4), irradiation time 150 h ([2]; additive 1 mg/mL) | Molecular weight (×10^4), irradiation time 300 h ([2]; additive 1 mg/mL) | Percent Conjugation (%), irradiation time 0 h ([2]; additive 1 mg/mL) | Percent Conjugation (%), irradiation time 150 h ([2]; additive 1 mg/mL) | Percent Conjugation (%), irradiation time 300 h ([2]; additive 1 mg/mL) | Molecular weight (×10^4), irradiation time 0 h ([2]; additive 10 mg/mL) | Molecular weight (×10^4), irradiation time 150 h ([2]; additive 10 mg/mL) | other results |
| --- | --- | --- | --- | --- | --- | --- | --- | --- | --- | --- | --- | --- | --- | --- | --- | --- | --- | --- | --- | --- | --- |
| O=C([O-])CS.[Na+] [Na thioglycolate, sodium thioglycolate] | 163 ×10^4 | 136 ×10^4 | 97 ×10^4 | 8 ×10^4 | 5 ×10^4 | 2 ×10^4 | 2.1% | 2.2% | 2.2% | 1.4% | 1.0% | 0.4% | 163 ×10^4 | 123 ×10^4 | 44 ×10^4 | 2.1% | 2.2% | 2.2% | 181 ×10^4 | 170 ×10^4 | suppressing drops in the molecular weight and percent conjugation ([1]; added at 10 mg/ml, not shielded from light): considerably effective in suppressing drops in the molecular weight and percent conjugation even when the time of irradiation exceeded 100 hours; Molecular weight (×10^4), irradiation time 0 h [1, 4]: 181 ×10^4; Molecular weight (×10^4), irradiation time 25 h [1, 4]: 166 ×10^4; Molecular weight (×10^4), irradiation time 50 h [1, 4]: 169 ×10^4; Molecular weight (×10^4), irradiation time 100 h [1, 4]: 163 ×10^4; Molecular weight (×10^4), irradiation time 150 h [1, 4]: 154 ×10^4; Molecular weight (×10^4), irradiation time 300 h [1, 4]: 5 ×10^4; Percent Conjugation (%) of MTX, irradiation time 0 h [1, 4]: 2.1%; Percent Conjugation (%) of MTX, irradiation time 25 h [1, 4]: 2.2%; Percent Conjugation (%) of MTX, irradiation time 50 h [1, 4]: 2.3%; Percent Conjugation (%) of MTX, irradiation time 100 h [1, 4]: 2.0%; Percent Conjugation (%) of MTX, irradiation time 150 h [1, 4]: 2.2%; Percent Conjugation (%) of MTX, irradiation time 300 h [1, 4]: 1.4%; Molecular weight (×10^4), irradiation time 300 h ([2]; additive 10 mg/mL): 157 ×10^4; Percent Conjugation (%), irradiation time 0 h ([2]; additive 10 mg/mL): 2.1%; Percent Conjugation (%), irradiation time 150 h ([2]; additive 10 mg/mL): 2.1%; Percent Conjugation (%), irradiation time 300 h ([2]; additive 10 mg/mL): 2.2% |
